Source: ChEMBL document CHEMBL1127241, “Taxol photoaffinity labels 2. Synthesis and biological evaluation of N-(4-azidobenzoyl)-N-debenzoyltaxol, N-(4-azido-2,3,5,6-tetrafluorobenzoyl)-N-debenzoyltaxol, and 7-(4-azido-2,3,5,6-tetrafluorobenzoyl)taxol” (1994)

Columns and labels:
[1] = test system: B16; assay: Concentration which produces 50% inhibition of proliferation of B16 melanoma cells after 40 hr incubation expressed as ED50 ratio relative to taxol; assay type: functional, Mus musculus
[2] = target: Tubulin alpha chain (Sus scrofa) (UniProt P02550); assay: Concentration which causes polymerization of 50% of the tubulin present in 15 min at 37 degree Celsius (stimulation of microtubule assembly) expressed as ED50 ratio relative to taxol; assay type: functional
Chain of Tubulin alpha chain (Sus scrofa) (P02550 whole entry, looked up): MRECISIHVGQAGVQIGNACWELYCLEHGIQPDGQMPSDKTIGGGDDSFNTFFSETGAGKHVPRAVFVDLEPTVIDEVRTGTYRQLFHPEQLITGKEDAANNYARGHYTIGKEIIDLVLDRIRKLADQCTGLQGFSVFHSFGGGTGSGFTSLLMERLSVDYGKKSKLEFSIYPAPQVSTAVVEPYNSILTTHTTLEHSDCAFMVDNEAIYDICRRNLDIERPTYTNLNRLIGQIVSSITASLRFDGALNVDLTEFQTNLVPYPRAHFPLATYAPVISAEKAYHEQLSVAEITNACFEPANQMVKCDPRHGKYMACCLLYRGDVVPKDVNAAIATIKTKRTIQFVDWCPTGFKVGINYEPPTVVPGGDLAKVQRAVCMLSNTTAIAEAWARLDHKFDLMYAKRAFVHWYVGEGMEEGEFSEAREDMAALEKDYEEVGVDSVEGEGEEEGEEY

Row | SMILES | ED50 ratio [1] | ED50 ratio [2]
1 | CC(=O)O[C@H]1C(=O)[C@@]2(C)[C@H]([C@H](OC(=O)c3ccccc3)[C@]3(O)C[C@H](OC(=O)[C@H](O)[C@@H](NC(=O)c4ccc(N=[N+]=[N-])cc4)c4ccccc4)C(C)=C1C3(C)C)[C@]1(OC(C)=O)CO[C@@H]1C[C@@H]2O | 4.6 | 2
2 | CC(=O)O[C@H]1C(=O)[C@@]2(C)[C@H]([C@H](OC(=O)c3ccccc3)[C@]3(O)C[C@H](OC(=O)[C@H](O)[C@@H](NC(=O)c4c(F)c(F)c(N=[N+]=[N-])c(F)c4F)c4ccccc4)C(C)=C1C3(C)C)[C@]1(OC(C)=O)CO[C@@H]1C[C@@H]2O | 14.8 | 4.6
3 | CC(=O)O[C@H]1C(=O)[C@]2(C)[C@@H](OC(=O)c3ccc(N=[N+]=[N-])cc3)C[C@H]3OC[C@@]3(OC(C)=O)[C@H]2[C@H](OC(=O)c2ccccc2)[C@]2(O)C[C@H](OC(=O)[C@H](O)[C@@H](NC(=O)c3ccccc3)c3ccccc3)C(C)=C1C2(C)C | 30 | 21.4
4 | CC(=O)O[C@H]1C(=O)[C@]2(C)[C@@H](OC(=O)c3c(F)c(F)c(N=[N+]=[N-])c(F)c3F)C[C@H]3OC[C@@]3(OC(C)=O)[C@H]2[C@H](OC(=O)c2ccccc2)[C@]2(O)C[C@H](OC(=O)[C@H](O)[C@@H](NC(=O)c3ccccc3)c3ccccc3)C(C)=C1C2(C)C | – | > 22.4
